Holding throughout (assay type): biochemical
The target in one test is T1, MMP-3 (Homo sapiens, UniProt P08254).
T1 construct: purchased R&D Systems 513-MP
The test is described as follows: In vitro MMP-3 inhibition test. The source says:
(§1) The MMP-mediated amidolytic cleavage of a suitable peptide substrate leads to an increase in fluorescent light here too. The signal intensity of the fluorescent light is directly proportional to the enzyme activity. The active concentration of a test compound at which half the enzyme is inhibited (50% signal intensity of the fluorescent light) is reported as the IC50 value.
Recombinant MMP-3 (from R&D Systems, 513-MP) is chemically activated in accordance with the manufacturer's instructions using APMA. 1 μl of the test compound to be analysed (as a solution in DMSO, suitable concentrations, for example, 1 nM to 30 μM) is pipetted into 24 μl of activated enzyme (final concentration, for example, 2 nM) in reaction buffer (50 mM Tris/HCl pH 7.5, 10 mM CaCl2, 150 mM NaCl, 0.05% Brij®-35) in a white 384-hole microtiter plate (MTP). The enzymatic reaction is started by adding the intramolecularly quenched Mca-Arg-Pro-Lys-Pro-Val-Glu-Nval-Trp-Arg-Lys(Dnp)-NH2 substrate (final concentration, for example, 10 μM; R&D Systems, ES-002), so as to result in a total test volume of 50 The course of the MMP-3 reaction is measured by measuring the fluorescence intensity (excitation 320 nm, emission 410 nm) over a suitable period of time (for example over 120 min at a temperature of 32° C.).

The next test concerns the target T2, MMP-9 (Homo sapiens, UniProt P14780).
T2 construct: purchased R&D Systems 911-MP
The test is described as follows: In vitro MMP-9 inhibition test.
Description: as §1
(§2) Recombinant MMP-9 (from R&D Systems, 911-MP) is chemically activated in accordance with the manufacturer's instructions using APMA. 1 μl of the test compound to be analysed (as a solution in DMSO, suitable concentrations, for example, 1 nM to 30 μM) is pipetted into 24 μl of activated enzyme (final concentration, for example, 0.1 nM) in reaction buffer (50 mM Tris/HCl pH 7.5, 10 mM CaCl2, 150 mM NaCl, 0.05% Brij®-35) in a white 384-hole microtiter plate (MTP). The enzymatic reaction is started by adding the intramolecularly quenched Mca-Pro-Leu-Gly-Leu-Dpa(Dnp)-Ala-Arg-NH2 substrate (final concentration, for example, 10 μM; R&D Systems, ES-001), so as to result in a total test volume of 50 μl. The course of the MMP-9 reaction is measured by measuring the fluorescence intensity (excitation 320 nm, emission 410 nm) over a suitable period of time (for example over 120 min at a temperature of 32° C.).

The target in the next test is T3, MMP-8 (Homo sapiens, UniProt P22894).
T3 construct: purchased R&D Systems 908-MP
T3 sequence (P22894 101-467): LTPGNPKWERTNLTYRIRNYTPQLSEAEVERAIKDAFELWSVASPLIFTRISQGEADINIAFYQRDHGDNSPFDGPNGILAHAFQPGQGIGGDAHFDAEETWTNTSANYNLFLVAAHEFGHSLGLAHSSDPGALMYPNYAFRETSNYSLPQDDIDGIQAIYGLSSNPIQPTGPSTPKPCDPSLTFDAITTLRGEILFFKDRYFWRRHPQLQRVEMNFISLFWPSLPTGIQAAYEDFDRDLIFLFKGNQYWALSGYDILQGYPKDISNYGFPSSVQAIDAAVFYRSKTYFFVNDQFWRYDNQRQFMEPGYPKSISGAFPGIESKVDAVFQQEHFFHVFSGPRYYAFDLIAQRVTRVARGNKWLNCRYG
The test is described as follows: In vitro MMP-8 inhibition test.
Description: as §1
as §2, with “MMP-8” for “MMP-9”, “908-MP)” for “911-MP)”, “0.5” for “0.1”

For 15 compounds, IC50 results are on record in patent US20170022171A1, “2,5-DISUBSTITUTED CYCLOPENTANECARBOXYLIC ACIDS AND THEIR USE” (Bayer Pharma Aktiengesellschaft, priority 2014, published 2017).

T1 sequence (P08254 100-477): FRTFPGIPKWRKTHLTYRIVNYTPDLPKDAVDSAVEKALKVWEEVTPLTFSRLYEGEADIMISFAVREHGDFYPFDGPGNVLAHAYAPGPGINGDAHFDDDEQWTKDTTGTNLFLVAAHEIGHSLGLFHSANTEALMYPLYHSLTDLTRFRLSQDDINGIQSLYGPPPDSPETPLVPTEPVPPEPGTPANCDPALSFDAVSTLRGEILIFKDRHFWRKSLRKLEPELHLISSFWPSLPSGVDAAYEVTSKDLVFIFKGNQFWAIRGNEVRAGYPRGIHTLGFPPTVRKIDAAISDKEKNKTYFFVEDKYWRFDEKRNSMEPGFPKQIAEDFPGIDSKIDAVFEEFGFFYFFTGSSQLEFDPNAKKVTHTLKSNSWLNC
T2 sequence (P14780 107-707 limits assumed): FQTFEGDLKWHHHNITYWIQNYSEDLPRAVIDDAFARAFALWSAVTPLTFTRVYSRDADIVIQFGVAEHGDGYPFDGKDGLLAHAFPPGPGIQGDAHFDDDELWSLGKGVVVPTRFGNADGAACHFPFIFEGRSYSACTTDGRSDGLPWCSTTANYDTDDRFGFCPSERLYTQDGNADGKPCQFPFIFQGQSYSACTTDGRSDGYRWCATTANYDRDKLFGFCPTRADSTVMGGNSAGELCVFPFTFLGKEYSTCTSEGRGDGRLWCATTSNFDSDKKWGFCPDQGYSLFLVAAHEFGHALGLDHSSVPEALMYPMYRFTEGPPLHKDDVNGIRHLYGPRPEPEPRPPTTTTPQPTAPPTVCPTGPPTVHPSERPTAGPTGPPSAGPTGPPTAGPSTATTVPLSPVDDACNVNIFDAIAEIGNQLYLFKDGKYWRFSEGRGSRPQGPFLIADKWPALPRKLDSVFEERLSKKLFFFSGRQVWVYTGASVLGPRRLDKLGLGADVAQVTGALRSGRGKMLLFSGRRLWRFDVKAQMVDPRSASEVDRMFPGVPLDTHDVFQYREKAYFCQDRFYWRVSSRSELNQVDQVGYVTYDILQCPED

As a reminder, the IC50 is the midpoint of a concentration-inhibition curve. A high value points to weaker potency in that assay. As for `CCCCCSc1ccc(C(=O)[C@H]2CC[C@@H](Cn3nnc4ccc(C(F)(F)F)cc4c3=O)[C@@H]2C(=O)O)cc1` (racemic) [Example 88, (+/−)-(1RS,2SR,5RS)-2-{[4-Oxo-6-(trifluoromethyl)-1,2,3-benzotriazin-3(4H)-yl]methyl}-5-[4-(pentylsulphanyl)benzoyl]cyclopentanecarboxylic acid], the half-inhibitory concentration (IC50) on MMP-3 was 96 nM; against MMP-9, 55 nM; at MMP-8, 6.2 nM.

Regarding `O=C(O)[C@@H]1[C@@H](Cn2nnc3ccc(C(F)(F)F)cc3c2=O)CC[C@H]1C(=O)c1ccc(OCC2CCCC2)cc1` (single isomer, unassigned) [Example 44, (+)-(1RS,2RS,5SR)-2-[4-(Cyclopentylmethoxy)benzoyl]-5-{[4-oxo-6-(trifluoromethyl)-1,2,3-benzotriazin-3(4H)-yl]methyl}cyclopentanecarboxylic acid], the half-inhibitory concentration (IC50) at MMP-3 came to 140 nM; at MMP-9 it was 52 nM; on MMP-8, 1.1 nM.

Regarding `O=C(O)[C@@H]1[C@@H](Cn2nnc3ccc(C(F)(F)F)cc3c2=O)CC[C@H]1C(=O)c1ccc(OCc2ccc(Cl)cc2)cc1` (single isomer, unassigned) [Example 25, (+)-(1RS,2RS,5SR)-2-{4-[(4-Chlorobenzyl)oxy]benzoyl}-5-{[4-oxo-6-(trifluoromethyl)-1,2,3-benzotriazin-3(4H)-yl]methyl}cyclopentanecarboxylic acid], the half-inhibitory concentration (IC50) is 63 nM against MMP-3, 3 nM against MMP-9 and 0.79 nM against MMP-8.

On to `CCCCOc1ccc(C(=O)[C@@H]2CC[C@H](Cn3nnc4ccc(C(F)(F)F)cc4c3=O)[C@H]2C(=O)O)cc1` (single isomer, unassigned) [Example 67, (+)-(1RS,2RS,5SR)-2-(4-Butoxybenzoyl)-5-{[4-oxo-6-(trifluoromethyl)-1,2,3-benzotriazin-3(4H)-yl]methyl}cyclopentanecarboxylic acid], for which the figures for the concentration for half-maximal inhibition (IC50) at MMP-3, against MMP-9 and against MMP-8 were 140 nM, 61 nM and 1.6 nM, respectively.

Regarding `O=C(O)[C@@H]1[C@@H](Cn2nnc3ccc(C(F)(F)F)cc3c2=O)CC[C@H]1C(=O)c1ccc(OCCC2CCCC2)cc1` (single isomer, unassigned) [Example 55, (+)-(1RS,2RS,5SR)-2-[4-(2-Cyclopentylethoxy)benzoyl]-5-{[4-oxo-6-(trifluoromethyl)-1,2,3-benzotriazin-3(4H)-yl]methyl}cyclopentanecarboxylic acid], the figures for the 50% inhibitory concentration (IC50) against MMP-3, at MMP-9 and at MMP-8 were 440 nM, 940 nM and 30 nM, respectively.

Consider `Cc1cccc(COc2ccc(C(=O)[C@H]3CC[C@@H](Cn4nnc5ccc(C(F)(F)F)cc5c4=O)[C@@H]3C(=O)O)cc2)c1` (racemic) [Example 15, (+/−)-(1RS,2RS,5SR)-2-{4-[(3-Methylbenzyl)oxy]benzoyl}-5-{[4-oxo-6-(trifluoromethyl)-1,2,3-benzotriazin-3(4H)-yl]methyl}cyclopentanecarboxylic acid], for which the results for the half-inhibitory concentration (IC50) on MMP-3, against MMP-9 and on MMP-8 were 220 nM, 230 nM and 26 nM, respectively.

Take `O=C(O)[C@@H]1[C@@H](Cn2nnc3ccc(C(F)(F)F)cc3c2=O)CC[C@H]1C(=O)c1ccc(OCc2cccc(N3CCOC3=O)c2)cc1` (single isomer, unassigned) [Example 35, (+)-(1RS,2RS,5SR)-2-(4-{[3-(2-Oxo-1,3-oxazolidin-3-yl)benzyl]oxy}benzoyl)-5-{[4-oxo-6-(trifluoromethyl)-1,2,3-benzotriazin-3(4H)-yl]methyl}cyclopentanecarboxylic acid]: the values for the 50% inhibitory concentration (IC50) on MMP-3, on MMP-9 and on MMP-8 were 400 nM, 1400 nM and 2 nM, respectively.

As to `Cc1cccc(COc2ccc(C(=O)[C@@H]3CC[C@H](Cn4nnc5ccc(C(F)(F)F)cc5c4=O)[C@H]3C(=O)O)cc2)c1` (single isomer, unassigned) [Example 16, (+)-(1RS,2RS,5SR)-2-{4-[(3-Methylbenzyl)oxy]benzoyl}-5-{[4-oxo-6-(trifluoromethyl)-1,2,3-benzotriazin-3(4H)-yl]methyl}cyclopentanecarboxylic acid], the half-inhibitory concentration (IC50) is 350 nM at MMP-3, 440 nM against MMP-9 and 65 nM on MMP-8.

Turning to `O=C(O)[C@H]1[C@H](Cn2nnc3ccc(C(F)(F)F)cc3c2=O)CC[C@@H]1C(=O)c1ccc(OCc2cccc(C(F)(F)F)c2)cc1` (racemic) [Example 18, (+/−)-(1RS,2SR,5RS)-2-{[4-Oxo-6-(trifluoromethyl)-1,2,3-benzotriazin-3(4H)-yl]methyl}-5-(4-{[3-(trifluoromethyl)benzyl]oxy}benzoyl)cyclopentanecarboxylic acid], the half-maximal inhibitory concentration (IC50) was determined as 1000 nM against MMP-3, 940 nM against MMP-9 and 61 nM against MMP-8.

For the compound `O=C(O)[C@@H]1[C@@H](Cn2nnc3ccc(C(F)(F)F)cc3c2=O)CC[C@H]1C(=O)c1ccc(OCc2cccc(C(F)(F)F)c2)cc1` (single isomer, unassigned) [Example 19, (+)-(1RS,2SR,5RS)-2-{[4-Oxo-6-(trifluoromethyl)-1,2,3-benzotriazin-3(4H)-yl]methyl}-5-(4-{[3-(trifluoromethyl)benzyl]oxy}benzoyl)cyclopentanecarboxylic acid], the half-maximal inhibitory concentration (IC50) against MMP-3 was 3000 nM; at MMP-9, 1000 nM; against MMP-8, 130 nM.

In the case of `COc1cccc(COc2ccc(C(=O)[C@@H]3CC[C@H](Cn4nnc5ccc(C)cc5c4=O)[C@H]3C(=O)O)cc2)c1` (single isomer, unassigned) [Example 107, (+)-(1RS,2RS,5SR)-2-{4-[(3-Methoxybenzyl)oxy]benzoyl}-5-[(6-methyl-4-oxo-1,2,3-benzotriazin-3(4H)-yl)methyl]cyclopentanecarboxylic acid], the IC50 was 730 nM against MMP-3, 89 nM at MMP-9 and 19 nM on MMP-8.

For the compound “(+)-(1RS,2RS,5SR)-2-{4-[Cyclohexyl)methyl)sulphanyl]benzoyl}-5-{[4-oxo-6-(trifluoromethyl)-1,2,3-benzotriazin-3(4H)-yl]methyl}cyclopentanecarboxylic acid [Example 86]”, the IC50 on MMP-3 worked out at 1300 nM; against MMP-9, 1500 nM; on MMP-8, 150 nM.

As for `CCCCCCOc1ccc(C(=O)[C@@H]2CC[C@H](Cn3nnc4ccc(C(F)(F)F)cc4c3=O)[C@H]2C(=O)O)cc1` (single isomer, unassigned) [Example 58, (+)-(1RS,2RS,5SR)-2-[4-(Hexyloxy)benzoyl]-5-{[4-oxo-6-(trifluoromethyl)-1,2,3-benzotriazin-3(4H)-yl]methyl}cyclopentanecarboxylic acid], the results for the IC50 at MMP-3, on MMP-9 and against MMP-8 were 300 nM, 83 nM and 16 nM, respectively.

`COc1cccc(COc2ccc(C(=O)[C@H]3CC[C@@H](Cn4nnc5ccc(C)cc5c4=O)[C@@H]3C(=O)O)cc2)c1` (racemic) [Example 106, (+/−)-(1RS,2RS,5SR)-2-{4-[(3-Methoxybenzyl)oxy]benzoyl}-5-[(6-methyl-4-oxo-1,2,3-benzotriazin-3(4H)-yl)methyl]cyclopentanecarboxylic acid]: the IC50 stood at 450 nM against MMP-3, 76 nM at MMP-9 and 11 nM against MMP-8.

As to `O=C(O)[C@H]1[C@H](Cn2nnc3ccc(C(F)(F)F)cc3c2=O)CC[C@@H]1C(=O)c1ccc(OCc2ccc(F)cc2)cc1` (racemic) [Example 12, (+/−)-(1RS,2RS,5SR)-2-{4-[(4-Fluorobenzyl)oxy]benzoyl}-5-{[4-oxo-6-(trifluoromethyl)-1,2,3-benzotriazin-3(4H)-yl]methyl}cyclopentanecarboxylic acid], the 50% inhibitory concentration (IC50) was 28 nM against MMP-3, 5.9 nM at MMP-9 and 0.67 nM against MMP-8.
